Like-named read-outs stand apart in the source and are kept apart here.
Key:
[1] = tested on: HCV genotype 1b replicon; experiment: HCV replicon assay, genotype 1b (cell ELISA for NS3/4A); assay type: cell-based, hepatitis C virus
How it was run: (§1)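 Stable replicon cells plated with a compound dilution series without G418 and incubated 96 h, then lysed. Replicon RNA measured indirectly by cell ELISA with an NS3/4A-specific antibody. IC50 calculated relative to DMSO control by four-parameter fit.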

[2] = tested on: HCV genotype 1a replicon; experiment: HCV replicon assay, genotype 1a (cell ELISA for NS3/4A); assay type: cell-based, hepatitis C virus
How it was run: as §1

[3] = Hepatitis C virus, 96 h, read-out: 1b IC50 (nM), genotype 1b replicon cells, 96 hours incubation, NS3/4A ELISA
[4] = Hepatitis C virus, 96 h, read-out: 1a IC50 (nM), genotype 1a replicon cells, 96 hours incubation, NS3/4A ELISA
[5] = read-out: 1b IC50, genotype 1b replicon cells, 96 hours incubation, NS3/4A ELISA
[6] = read-out: 1a IC50, genotype 1a replicon cells, 96 hours incubation, NS3/4A ELISA

Row | SMILES | IC50 [1, 3] | IC50 [2, 4] | further results
1 | CNC(=O)c1c(-c2ccc(F)cc2)oc2cc(N(C)S(C)(=O)=O)c(-c3ccc4c(n3)-c3cc5c(F)cccc5n3CC(O)C4)cc12 (stereo not shown) [Example 69] | 2.95 nM | 2.3 nM | –
2 | CNC(=O)c1c(-c2ccc(F)cc2)oc2cc(N(C)S(C)(=O)=O)c(-c3ccc4c(n3)-c3cc5c(F)cccc5n3C(CO)C4)cc12 (stereo not shown) [Example 53] | – | – | IC50 [1, 5]: 4.03 nM; IC50 [2, 6]: 8.07 nM
3 | CNC(=O)c1c(-c2ccc(C(F)(F)F)cc2)oc2cc(N(C)S(C)(=O)=O)c(-c3ccc4c(n3)-c3cc5c(F)cccc5n3CC4)cc12 [Example 1, 5-(11-fluoro-5,6-dihydroindolo[1,2-h][1,7]naphthyridin-2-yl)-N-methyl-6-(N-methylmethylsulfonamido)-2-(4-(trifluoromethyl)phenyl)benzofuran-3-carboxamide] | – | – | IC50 ([1]; genotype 1b replicon cells, 96 hours incubation, NS3/4A ELISA, read-out: 1b IC50): 4.67 nM; IC50 ([2]; genotype 1a replicon cells, 96 hours incubation, NS3/4A ELISA, read-out: 1a IC50): 3.78 nM
4 | CNC(=O)c1c(-c2ccc(F)cc2)oc2cc(N(C)S(C)(=O)=O)c(-c3ccc4c(n3)-c3cc5c(F)cccc5n3C(CN3CC[C@@H](F)C3)C4)cc12 (stereo partly shown) [Example 94] | 10.8 nM | 34 nM | –
5 | CNC(=O)c1c2cc(-c3ccc4c(n3)-c3cc5c(F)cccc5n3CC4)c(N(C)S(C)(=O)=O)cc2nn1-c1ccc(F)cc1 [Example 47, 5-(11-fluoro-5,6-dihydroindolo[1,2-h][1,7]naphthyridin-2-yl)-2-(4-fluorophenyl)-N-methyl-6-(N-methylmethylsulfonamido)-2H-indazole-3-carboxamide] | 8.46 nM | 14.5 nM | –
6 | CNC(=O)c1c(-n2cc(C(F)(F)F)cn2)oc2cc(N(C)S(C)(=O)=O)c(-c3ccc4c(n3)-c3cc5c(F)cccc5n3CC4)cc12 [Example 33] | 23.6 nM | 170 nM | –
7 | CNC(=O)c1c(-c2ccc(OCC(F)(F)F)nc2)oc2cc(N(C)S(C)(=O)=O)c(-c3ccc4c(n3)-c3cc5c(F)cccc5n3CC4)cc12 [Example 4] | 7.3 nM | 6.99 nM | –
8 | CNC(=O)c1c(-c2ccc(C)nc2)oc2cc(N(C)S(C)(=O)=O)c(-c3ccc4c(n3)-c3cc5c(F)cccc5n3CC(N3CC(F)C3)C4)cc12 (stereo not shown) [Example 71] | 42.2 nM | 41.7 nM | –
9 | CNC(=O)c1c(-c2ccc(C)nc2)oc2cc(N(C)S(C)(=O)=O)c(-c3ccc4c(n3)-c3cc5c(F)cccc5n3C(CCN3CC(F)C3)C4)cc12 (stereo not shown) [Example 68] | – | – | IC50 [1, 5]: 60.6 nM; IC50 [2, 6]: 70.9 nM
10 | CNC(=O)c1c(-c2nocc2C)oc2cc(N(C)S(C)(=O)=O)c(-c3ccc4c(n3)-c3cc5c(F)cccc5n3CC4)cc12 [Example 35, 5-(11-fluoro-5,6-dihydroindolo[1,2-h][1,7]naphthyridin-2-yl)-N-methyl-2-(4-methylisoxazol-3-yl)-6-(N-methylmethylsulfonamido)benzofuran-3-carboxamide] | 5.19 nM | 3.28 nM | –
11 | CNC(=O)c1c(-c2ccc(F)cc2)oc2cc(N(C)S(C)(=O)=O)c(-c3ccc4ccn5c6ccccc6c(C)c5c4n3)cc12 [Example 79, 2-(4-fluorophenyl)-N-methyl-5-(12-methylindolo[1,2-h][1,7]naphthyridin-2-yl)-6-(N-methylmethylsulfonamido)benzofuran-3-carboxamide] | 77.3 nM | 93.8 nM | –
12 | CCn1cc(-c2oc3cc(N(C)S(C)(=O)=O)c(-c4ccc5c(n4)-c4cc6c(F)cccc6n4CC5)cc3c2C(=O)NC)cn1 [Example 27] | 11.1 nM | 9.13 nM | –
13 | CCc1ccc(-c2oc3cc(N(C)S(C)(=O)=O)c(-c4ccc5c(n4)-c4cc6c(F)cccc6n4CC5)cc3c2C(=O)NC)cn1 [Example 9] | 31.2 nM | 38.2 nM | –
14 | CNC(=O)c1c(-c2ccc(F)cc2)oc2cc(N(C)S(C)(=O)=O)c(-c3ccc4c(n3)-c3cc5c(F)cccc5n3C(CS(C)(=O)=O)C4)cc12 (single isomer, unassigned) [Example 56, (R or S)-5-(11-fluoro-6-((methylsulfonyl)methyl)-5,6-dihydroindolo[1,2-h][1,7]naphthyridin-2-yl)-2-(4-fluorophenyl)-N-methyl-6-(N-methylmethylsulfonamido)benzofuran-3-carboxamide] | 2 nM | – | IC50 [2, 6]: 3.4 nM

From patent publication US9243002B2, “Tetracyclic heterocycle compounds and methods of use thereof for the treatment of hepatitis C” (priority 2013, dated 2016)
